Source: US20220409619A1, “INHIBITORS OF HUMAN IMMUNODEFICIENCY VIRUS REPLICATION” (VIIV HEALTHCARE UK (No. 5) LIMITED, priority 2019, published 2022)

Assays:
[1] = Compound cytotoxicity, XTT-based colorimetric assay; format: cell-based; settings: human; uninfected MT2 cells, day 4, XTT-based colorimetric assay
Method: Compound cytotoxicity and the corresponding CC50 values were determined using the same protocol as described in the antiviral assay except that uninfected cells were used. Cytotoxicity was assessed on day 4 in uninfected MT2 cells by using a XTT (2,3-bis[2-Methoxy-4-nitro-5-sulfophenyl]-2H-tetrazolium-5-carboxyanilide inner salt)-based colorimetric assay (Sigma-Aldrich, St Louis, Mo.).

[2] = test system: recombinant NL4-3 virus (nef section replaced with Renilla luciferase gene) in MT-2 cells; assay: HIV cell culture assay (antiviral activity, luciferase readout); format: cell-based; settings: Renilla, NL43
Method: HIV cell culture assay—MT-2 cells, 293T cells and the proviral DNA clone of NL4-3 virus were obtained from the NIH AIDS Research and Reference Reagent Program. MT-2 cells were propagated in RPMI 1640 media supplemented with 10% heat inactivated fetal bovine serum (FBS), 100 μg/ml penicillin G and up to 100 units/mL streptomycin. The 293T cells were propagated in DMEM media supplemented with 10% heat inactivated FBS, 100 μg/mL penicillin G and 100 μg/mL streptomycin. A recombinant NL4-3 proviral clone, in which a section of the nef gene was replaced with the Renilla luciferase gene, was used to make the reference virus used in these studies. The recombinant virus was prepared through transfection of the recombinant NL4-3 proviral clone into 293T cells using Transit-293 Transfection Reagent from Mirus Bio LLC (Madison, Wis.). Supernatent was harvested after 2-3 days and the amount of virus present was titered in MT-2 cells using luciferase enzyme activity as a marker by measuring luciferase enzyme activity. Luciferase was quantitated using the EnduRen Live Cell Substrate from Promega (Madison, Wis.). Antiviral activities of compounds toward the recombinant virus were quantified by measuring luciferase activity in MT-2 cells infected for 4-5 days with the recombinant virus in the presence of serial dilutions of the compound.
The 50% effective concentration (EC50) was calculated by using the exponential form of the median effect equation where (Fa)=1/[1+(ED50/drug conc.)^m] (Johnson V A, Byington R T. Infectivity Assay. In Techniques in HIV Research. ed. Aldovini A, Walker B D. 71-76. New York: Stockton Press. 1990). Curve fitting and analysis were performed with ActivityBase XE Runner software version 9.1.0.4 using model 203 (ID Business Solutions, LTD, Guildford, UK).

Row | SMILES | CC50 at 4 days [1] [nM] | EC50 [2] [nM]
1 | CCOc1ccc(-c2cc(=O)n(-c3ccc(Cl)c4c(NS(=O)(=O)C5CC5)nn(CC(F)F)c34)c([C@H](Cc3cc(F)cc(F)c3)NC(=O)Cn3nc(C(F)F)c4c3C(F)(F)[C@@H]3C[C@H]43)n2)cn1 (atropisomer, axis not shown; (P)) [Example 37, N-((S)-1-((1P)-1-(4-chloro-3-(cyclopropanesulfonamido)-1-(2,2-difluoroethyl)-1H-indazol-7-yl)-4-(6-ethoxypyridin-3-yl)-6-oxo-1,6-dihydropyrimidin-2-yl)-2-(3,5-difluorophenyl)ethyl)-2-((3bS,4aR)-3-(difluoromethyl)-5,5-difluoro-3b,4,4a,5-tetrahydro-1H-cyclopropa[3,4]cyclopenta[1,2-c]pyrazol-1-yl)acetamide] | > 100 | 3.7
2 | O=C(Cn1nc(C(F)F)c2c1C(F)(F)[C@@H]1C[C@H]21)N[C@@H](Cc1cc(F)cc(F)c1)c1nc(-c2ccc(C(F)(F)F)nc2)cc(=O)n1-c1ccc(Cl)c2c(NS(=O)(=O)C3CC3)nn(CC(F)F)c12 (atropisomer, axis not shown; (P)) [Example 38, N-((S)-1-((1P)-1-(4-chloro-3-(cyclopropanesulfonamido)-1-(2,2-difluoroethyl)-1H-indazol-7-yl)-6-oxo-4-(6-(trifluoromethyl)pyridin-3-yl)-1,6-dihydropyrimidin-2-yl)-2-(3,5-difluorophenyl)ethyl)-2-((3bS,4aR)-3-(difluoromethyl)-5,5-difluoro-3b,4,4a,5-tetrahydro-1H-cyclopropa[3,4]cyclopenta[1,2-c]pyrazol-1-yl)acetamide] | > 100 | 0.39
3 | COc1cncc(-c2cc(=O)n(-c3ccc(Cl)c4c(NS(=O)(=O)C5CC5)nn(CC(F)F)c34)c([C@H](Cc3cc(F)cc(F)c3)NC(=O)Cn3nc(C(F)F)c4c3C(F)(F)[C@@H]3C[C@H]43)n2)n1 (atropisomer, axis not shown; (P)) [Example 40, N-((S)-1-((1P)-1-(4-chloro-3-(cyclopropanesulfonamido)-1-(2,2-difluoroethyl)-1H-indazol-7-yl)-4-(6-methoxypyrazin-2-yl)-6-oxo-1,6-dihydropyrimidin-2-yl)-2-(3,5-difluorophenyl)ethyl)-2-((3bS,4aR)-3-(difluoromethyl)-5,5-difluoro-3b,4,4a,5-tetrahydro-1H-cyclopropa[3,4]cyclopenta[1,2-c]pyrazol-1-yl)acetamide] | > 100 | 0.6
4 | COC(C)(C)C#Cc1cc(=O)n(-c2ccc(Cl)c3c(NS(=O)(=O)C4CC4)nn(CC(F)F)c23)c([C@H](Cc2cc(F)cc(F)c2)NC(=O)Cn2nc(C(F)F)c3c2C(F)(F)[C@@H]2C[C@H]32)n1 (atropisomer, axis not shown; (P)) [Example 41, N-((S)-1-((1P)-1-(4-chloro-3-(cyclopropanesulfonamido)-1-(2,2-difluoroethyl)-1H-indazol-7-yl)-4-(3-methoxy-3-methylbut-1-yn-1-yl)-6-oxo-1,6-dihydropyrimidin-2-yl)-2-(3,5-difluorophenyl)ethyl)-2-((3bS,4aR)-3-(difluoromethyl)-5,5-difluoro-3b,4,4a,5-tetrahydro-1H-cyclopropa[3,4]cyclopenta[1,2-c]pyrazol-1-yl)acetamide] | > 100 | 0.064
5 | CC(F)(F)Cn1ccc(-c2cc(=O)n(-c3ccc(Cl)c4c(NS(=O)(=O)C5CC5)nn(CC(F)F)c34)c([C@H](Cc3cc(F)cc(F)c3)NC(=O)Cn3nc(C(F)F)c4c3C(F)(F)[C@@H]3C[C@H]43)n2)n1 (atropisomer, axis not shown; (P)) [Example 42, N-((S)-1-((1P)-1-(4-chloro-3-(cyclopropanesulfonamido)-1-(2,2-difluoroethyl)-1H-indazol-7-yl)-4-(1-(2,2-difluoropropyl)-1H-pyrazol-3-yl)-6-oxo-1,6-dihydropyrimidin-2-yl)-2-(3,5-difluorophenyl)ethyl)-2-((3bS,4aR)-3-(difluoromethyl)-5,5-difluoro-3b,4,4a,5-tetrahydro-1H-cyclopropa[3,4]cyclopenta[1,2-c]pyrazol-1-yl)acetamide] | > 100 | 0.21
6 | O=C(Cn1nc(C(F)F)c2c1C(F)(F)[C@@H]1C[C@H]21)N[C@@H](Cc1cc(F)cc(F)c1)c1nc(-c2cccc(C(F)(F)F)n2)cc(=O)n1-c1ccc(Cl)c2c(NS(=O)(=O)C3CC3)nn(CC(F)F)c12 (atropisomer, axis not shown; (P)) [Example 44, N-((S)-1-((1P)-1-(4-chloro-3-(cyclopropanesulfonamido)-1-(2,2-difluoroethyl)-1H-indazol-7-yl)-6-oxo-4-(6-(trifluoromethyl)pyridin-2-yl)-1,6-dihydropyrimidin-2-yl)-2-(3,5-difluorophenyl)ethyl)-2-((3bS,4aR)-3-(difluoromethyl)-5,5-difluoro-3b,4,4a,5-tetrahydro-1H-cyclopropa[3,4]cyclopenta[1,2-c]pyrazol-1-yl)acetamide] | > 100 | 0.24
7 | COC(C)(C)C#Cc1cc(=O)n(-c2ccc(Cl)c3c(NS(=O)(=O)C4CC4)nn(CC(F)F)c23)c([C@H](Cc2cc(F)cc(F)c2)NC(=O)Cn2nc(C(F)(F)F)c3c2C(F)(F)[C@@H]2C[C@H]32)n1 (atropisomer, axis not shown; (P)) [Example 45, N-((S)-1-((1P)-1-(4-chloro-3-(cyclopropanesulfonamido)-1-(2,2-difluoroethyl)-1H-indazol-7-yl)-4-(3-methoxy-3-methylbut-1-yn-1-yl)-6-oxo-1,6-dihydropyrimidin-2-yl)-2-(3,5-difluorophenyl)ethyl)-2-((3bS,4aR)-5,5-difluoro-3-(trifluoromethyl)-3b,4,4a,5-tetrahydro-1H-cyclopropa[3,4]cyclopenta[1,2-c]pyrazol-1-yl)acetamide] | > 100 | 0.12
8 | CC(C)(C#Cc1cc(=O)n(-c2ccc(Cl)c3c(NS(=O)(=O)C4CC4)nn(CC(F)F)c23)c([C@H](Cc2cc(F)cc(F)c2)NC(=O)Cn2nc(C(F)F)c3c2C(F)(F)[C@@H]2C[C@H]32)n1)S(C)(=O)=O (atropisomer, axis not shown; (P)) [Example 47, N-((S)-1-((1P)-1-(4-chloro-3-(cyclopropanesulfonamido)-1-(2,2-difluoroethyl)-1H-indazol-7-yl)-4-(3-methyl-3-(methylsulfonyl)but-1-yn-1-yl)-6-oxo-1,6-dihydropyrimidin-2-yl)-2-(3,5-difluorophenyl)ethyl)-2-((3bS,4aR)-3-(difluoromethyl)-5,5-difluoro-3b,4,4a,5-tetrahydro-1H-cyclopropa[3,4]cyclopenta[1,2-c]pyrazol-1-yl)acetamide] | > 100 | 0.047
9 | CCOc1ncc(-c2cc(=O)n(-c3ccc(Cl)c4c(NS(=O)(=O)C5CC5)nn(CC(F)F)c34)c([C@H](Cc3cc(F)cc(F)c3)NC(=O)Cn3nc(C(F)F)c4c3C(F)(F)[C@@H]3C[C@H]43)n2)cn1 (atropisomer, axis not shown; (P)) [Example 49, N-((S)-1-((1P)-1-(4-chloro-3-(cyclopropanesulfonamido)-1-(2,2-difluoroethyl)-1H-indazol-7-yl)-2′-ethoxy-6-oxo-1,6-dihydro-[4,5′-bipyrimidin]-2-yl)-2-(3,5-difluorophenyl)ethyl)-2-((3bS,4aR)-3-(difluoromethyl)-5,5-difluoro-3b,4,4a,5-tetrahydro-1H-cyclopropa[3,4]cyclopenta[1,2-c]pyrazol-1-yl)acetamide] | > 100 | 0.58
10 | O=C(Cn1nc(C(F)F)c2c1C(F)(F)[C@@H]1C[C@H]21)N[C@@H](Cc1cc(F)cc(F)c1)c1nc(-c2cnccn2)cc(=O)n1-c1ccc(Cl)c2c(NS(=O)(=O)C3CC3)nn(CC(F)F)c12 (atropisomer, axis not shown; (P)) [Example 50, N-((S)-1-((1P)-1-(4-chloro-3-(cyclopropanesulfonamido)-1-(2,2-difluoroethyl)-1H-indazol-7-yl)-6-oxo-4-(pyrazin-2-yl)-1,6-dihydropyrimidin-2-yl)-2-(3,5-difluorophenyl)ethyl)-2-((3bS,4aR)-3-(difluoromethyl)-5,5-difluoro-3b,4,4a,5-tetrahydro-1H-cyclopropa[3,4]cyclopenta[1,2-c]pyrazol-1-yl)acetamide] | > 100 | 0.81
